Source: patent US12354130B2, “Combination therapies” (Genentech, Inc., priority 2012, dated 2025)
Read-outs that look alike come from different tables or passages of the source.

Assays:
[1] = cited from earlier work
[2] = test system: unresectable or metastatic melanoma that is BRAFV600E mutation-positive; conditions: cited from earlier work
[3] = cited from earlier work; remark: listed apart in the source
[4] = test system: patients with BRAF^V600 mutation-positive, unresectable locally advanced or metastatic melanoma
Description: This multicenter study has 2 stages: a dose-escalation stage and a cohort-expansion stage.
Key inclusion criteria include the presence of the V600E mutation in melanoma tumor tissue using the Cobas® 4800 BRAF V600 mutation test, measurable disease per Response Evaluation Criteria in Solid Tumors (RECIST) v1.1, ECOG PS of ≤1, and adequate hematologic and end organ function as assessed through key laboratory measures. Patients were excluded if they had: ocular pathology or risk factors that predisposes to retinal vein occlusion; QTc>450 ms; or active CNS metastasis. Patients treated with stereotactic radiation therapy or surgery were eligible if stable for >3 weeks prior to treatment.
Each treatment cycle was 28 days.
Dose-escalation used the standard 3+3 design and proceeded in increments, taking into account the safety and tolerability of the combination.
Eligible patients had BRAF^V600-mutated unresectable or metastatic melanoma, and ECOG PS 0-1. Patients were either naïve to vemurafenib or had disease progression on vemurafenib. The study consisted of dose-escalation and expansion stages. […] Primary endpoints were maximum tolerated dose (MTD), dose-limiting toxicity (DLT) of both drugs, safety, and PK.

[5] = compared with dacarbazine (Chapman et al. 2011)
[6] = during combination treatment, as of 6 Jul. 2012

Row | SMILES | single-agent MTD ([1]; 21/7 schedule) | response rates ([2]; Flaherty 2010, Chapman 2011, Sosman 2012) | decrease in the risk of disease progression or death [2, 5] | reduction in the risk of death [2, 5] | single-agent MTD ([1]; in vivo) | dissolution rate of the amorphous form as compared to the crystalline form [3] | solubility in water of the amorphous form as compared with the crystalline form [3] | dose-limiting toxicity event ([4]; cohort 1 (vemurafenib 720 mg BID+GDC-0973 60 mg QD 14/14), led to discontinuation of vemurafenib) | dose-limiting toxicity event ([4]; cohort 1D) | discontinuation of the drug because of QT interval prolongation [4, 6] | primary dose reduction of the drug because of LFT abnormality [4, 6] | primary dose reduction of the drug because of central serous retinopathy [4, 6] | primary dose reduction of the drug because of rash [4, 6] | temporary interruption of the drug because of arthralgia [4, 6] | temporary interruption of the drug because of liver function test (LFT) abnormalities [4, 6] | temporary interruption of the drug because of rash [4, 6]
1 | O=C(c1ccc(F)c(F)c1Nc1ccc(I)cc1F)N1CC(O)([C@@H]2CCCCN2)C1 [GDC-0973, [3,4-difluoro-2-[(2-fluoro-4-iodophenyl)amino]phenyl][3-hydroxy-3-[(2S)-2-piperidinyl]-1-azetidinyl]methanone] | 60 mg | – | – | – | – | – | – | – | – | – | – | – | – | – | – | –
2 | CCCS(=O)(=O)Nc1ccc(F)c(C(=O)c2c[nH]c3ncc(-c4ccc(Cl)cc4)cc23)c1F [vemurafenib, propane-1-sulfonic acid {3-[5-(4-chlorophenyl)-1H-pyrrolo[2,3-b]pyridine-3-carbonyl]-2,4-difluoro-phenyl}-amide] | – | greater than 50% | 74% | 63% | 960 mg BID | improved dissolution rate | greater solubility in water | Grade 3 QT prolongation | Grade 3 arthralgia | 1 patient | 1 patient | 1 patient | 1 patient | 3 patients | 3 patients | 8 patients
